The record followed here is ChEMBL document CHEMBL1141422, “Isolation and structures of erylosides from the Caribbean sponge Erylus formosus” (J Nat Prod, 2007).

Assay [1] is described as follows: Activation of calcium influx into mouse splenocytes at 100 ug/ml relative to control. The note with it: Splenocyte. The assay is classed as functional, cell-based.
The next assay relates to Ehrlich. The assay can be described thus: Induction of apoptosis in mouse Ehrlich carcinoma cells at 100 ug/ml. The assay is classed as functional, cell-based.

Calls of active or inactive are those of the source. The rule behind the calls is not given here.

As to `CC(C)=CCC[C@@H](C)[C@H]1CC[C@@]2(C(=O)O)C3=C(CC[C@]12C)[C@@]1(C)CC[C@H](O[C@@H]2OC[C@H](O)[C@H](O)[C@H]2O[C@@H]2O[C@H](CO)[C@H](O)[C@H](O)[C@H]2O)C(C)(C)[C@@H]1CC3`, the Activity in assay [1] came out at 130%.

`C=C(C)[C@@H](O)CC[C@@H](C)[C@H]1CC[C@@]2(C(=O)O)C3=C(CC[C@]12C)[C@@]1(C)CC[C@H](O[C@@H]2OC[C@H](O)[C@H](O)[C@H]2O[C@@H]2O[C@H](CO)[C@H](O)[C@H](O)[C@H]2O)C(C)(C)[C@@H]1CC3`: the result in the assay with Ehrlich was Active.

On to `C=C(CC[C@@H](C)[C@H]1CC[C@@]2(C(=O)O)C3=C(CC[C@]12C)[C@@]1(C)CC[C@H](O[C@@H]2OC[C@H](O)[C@H](O)[C@H]2O[C@@H]2O[C@H](CO)[C@H](O)[C@H](O)[C@H]2O)C(C)(C)[C@@H]1CC3)C(C)C`, for which the Activity in assay [1] came to 130%.
